{
  "source": "patent US20230220047A1",
  "about": "“PEPTIDES FOR TREATMENT OF SEPSIS AND CANCER” (NORWEGIAN UNIVERSITY OF SCIENCE AND TECHNOLOGY (NTNU), priority 2020, published 2023)",
  "key": {"caspase-3": {"test_system": "caspase-3", "assay": "Western blot for cleaved caspase-3 in JJN-3 cells", "assay_type": "cell-based, human", "settings": "JJN-3, 10 μM, 24 or 48 h", "method": "JJN-3 cells were cultured for 24 or 48 hours with a control peptide (penetratin) or P7-A4-Pen, both at 10 μM. Cells were then lysed and lysates analysed by Western blot for cleaved caspase-3. Presence of cleaved (i.e. activated) caspase-3 is an indicator of apoptotic pathway activation. Cleaved caspase 3 was detected at high levels in the cells treated with P7-A4-Pen for 24 or 48 hours, and only at much lower levels in the cells treated with the control peptide. β-tubulin was detected as a loading control.\nTo investigate the mechanism of cytotoxicity mediated by the anti-proliferative peptides of the invention, the effect of the peptide P7-A4-Pen on caspase-3 activation in JJN-3 multiple myeloma cells was investigated. Caspase-3 is a pro-apoptotic caspase which is activated by cleavage by upstream caspases 8, 9 and 10 in response to cell death stimuli. Activated, cleaved caspase-3 cleaves and activates caspases 6 and 7, which induce apoptosis. JJN-3 multiple myeloma cells were incubated with 10 μM P7-A4-Pen or Penetratin control for 24 or 48 hours, lysed and analysed by Western blot to investigate caspase-3 activation (by blotting cleaved caspase-3)."}, "[1]": {"test_system": "ANBL-6 multiple myeloma cells", "assay": "CellTiter-Glo cell viability assay, ANBL-6", "assay_type": "cell-based"}, "TLR8": {"test_system": "TLR8", "assay": "qPCR of CL075-induced TLR8-mediated cytokine expression in primary human monocytes", "assay_type": "cell-based", "settings": "15 μM, CL075 1 μg/ml", "method": "Cells were pre-treated with 15 μM peptides for 30 min, followed by addition of LPS (100 ng/ml) (A) or CL075 (1 μg/ml) (B) for 2 or 4 h. Each dot on the graphs corresponds to the average value for one donor, the lines show the mean values for all donors, and error bars indicate the SD.\nTotal RNA was isolated from the cells using Qiazol reagent #79306 from QIAGEN, and chloroform extraction followed by purification on RNeasy Mini columns with DNAse digestion (Qiagen). cDNA was prepared using the Maxima First Strand cDNA Synthesis Kit for quantitative real-time polymerase chain reaction (RT-qPCR) (Thermo Fisher Scientific) according to the manufacturer's protocol. qPCR was performed using the PerfeCTa qPCR FastMix (Quanta Biosciences) in replicates and cycled in a StepOnePlus™ Real-Time PCR cycler. The following TaqMan® Gene Expression Assays (Applied Biosystems®) were used: IFNβ (Hs01077958_s1), TNF (Hs00174128_m1), TBP (Hs00427620_m1), CXCL10 (Hs01124251_g1), IL-6 (Hs00174131_m1) and IL-1β (Hs01555410_m1), for human cells; Ifnβ (Mm00439552_s1), Tnf (Mm00443258_m1), Tbp (Mm01277042_m1) and II-1β (Mm00434228_m1), for mouse cells. […] Relative expression was calculated using Pfaffl's mathematical model (Pfaffl, Nucleic Acids Research 29(9): e45, 2001). […] Statistical significance was evaluated in GraphPad Prizm 5.03. […] The difference between the two groups was determined by two-tailed t test. […]"}, "TLR4 [2]": {"test_system": "TLR4", "assay": "Western blot of LPS signalling in murine immortalized BMDMs", "assay_type": "cell-based, mouse", "settings": "murine macrophages, 10 μM", "method": "Western blot analysis of lysates from cells pretreated with media containing controls (water, DMSO or 10 μM control peptide C3-Pen) or P7-Pen peptide for 30 min before stimulation with LPS (K12 LPS, 100 ng/ml) for designated time periods.\n(§1) Protein pellets were dissolved by heating protein pellets for 10 min at 95° C. in buffer containing 4 M urea, 1 SDS (Sigma) and NuPAGE® LDS Sample Buffer (4×) (Thermo Fisher Scientific). Otherwise, lysates were made using 1× RIPA lysis buffer (150 mM NaCl, 50 mM TrisHCl (pH 7.5), 1% Triton X100, 5 mM EDTA, protease inhibitors, phosphatase inhibitors). For Western blot analysis we used pre-cast protein gels NuPAGE™ Novex™ and iBlot Transfer Stacks iBlot Gel Transfer Device (Thermo Fisher Scientific). Proteins were transferred to the membrane by dry-blotting using iBlot® 2 NC Regular/Mini Stacks (Life Technologies) in the iBlot 2 Dry Blotting System (Life Technologies). After secondary antibody incubation, membranes were washed and incubated with HRP substrate solution (SuperSignal™ West Femto Maximum Sensitivity Substrate (Thermo Fisher Scientific)). Images were taken using Odyssey® Fc (LI-CORE). Quantification graphs were generated by the analysis of signal intensities for protein bands (protein of interest and endogenous loading control—β-tubulin from the same membrane) using Odyssey software (LI-CORE). Data were normalised to the expression levels of β-tubulin and presented as a relative fold change to the control sample.\nIn addition, pre-treatment of murine macrophages with P7-Pen inhibited LPS-mediated phosphorylation of TBK1 and IκBα, and decreased phosphorylation of p38 MAPK (FIG. 23)."}, "TLR4 [3]": {"test_system": "TLR4", "assay": "Western blot of LPS signalling in THP-1 cells and primary human monocytes", "assay_type": "cell-based", "method": "as §1\nFurther, we tested the effect of P7-Pen on phosphorylation of p38 MAPK, IκBα degradation and modification of IRAK1 in human macrophages (THP-1 cells) and primary human monocytes. P7-Pen inhibited LPS-mediated phosphorylation of p38 MAPK (FIG. 24A) and inhibited IRAK1 ubiquitination/phosphorylation (visualised as band shift to higher molecular weight) in primary monocytes (FIG. 24B)."}, "[4]": {"target": "T1, Mal interaction with MyD88 and IRAK1 (Homo sapiens, UniProt P58753)", "T1 construct": "endogenous in cells; host or cells: primary human macrophages, LPS-stimulated", "T1 sequence (P58753 whole entry)": "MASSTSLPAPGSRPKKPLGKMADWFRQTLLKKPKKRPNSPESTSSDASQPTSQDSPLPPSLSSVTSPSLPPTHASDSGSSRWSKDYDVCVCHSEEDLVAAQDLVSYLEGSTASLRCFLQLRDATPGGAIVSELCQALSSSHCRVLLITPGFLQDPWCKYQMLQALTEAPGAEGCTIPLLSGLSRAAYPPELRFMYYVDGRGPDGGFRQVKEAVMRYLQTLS", "assay": "Anti-Mal immunoprecipitation from LPS-stimulated primary human macrophages", "assay_type": "cell-based", "settings": "15 μM, 30 min pre-treatment, LPS 30 min or 1 h", "method": "(A) Mal^Flag was overexpressed in HEK293T cells. […] Lysis buffer contained 300 mM NaCl and 1% Triton X100. (B) Mal^Flag and SLAMF1 wt or deletion mutants (Δ20 or Δ67 C-terminal amino acids) were co-expressed in HEK293T cells followed by immunoprecipitations with anti-Flag beads and Western blot analysis. (C) Primary human macrophages were pre-treated with 15 μM peptides for 30 min, stimulated with LPS for another 30 min or 1 h, lysed and used for IPs. Precipitations were performed using goat anti-Mal polyclonal antibodies covalently bound to magnetic beads, followed by Western blot analysis. Proteins in lysates were analysed for input control (A-C)."}, "primary human monocytes": {"test_system": "primary human monocytes", "assay": "LDH cell viability in primary human monocytes", "assay_type": "cell-based", "settings": "compared to control peptides or P7-Pen"}},
  "note": "“Also recorded” adds a separate entry of the source.",
  "data": [
    {"substance": "Ac-ITVAASVTLTGRQIKIWFQNRRMKWKK-NH2 [Peptide P7-A4-Pen]", "values": [
      {"measurement": "caspase-3 cleavage", "setting": "caspase-3", "result": "strongly stimulates"},
      {"measurement": "combination effect with melphalan at low melphalan concentrations", "setting": "[1]; ANBL-6, 5 μM peptide", "result": "synergistic effect"},
      {"measurement": "cytotoxic effect of combination with melphalan relative to peptide or melphalan alone", "setting": "[1]; ANBL-6, 5 μM peptide plus melphalan 8-20 μM, 48 h", "result": "much-enhanced cytotoxic effect"}
    ]},
    {"substance": "Ac-ITVYASVTLTGRQIKIWFQNRRMKWKK-NH2 [Peptide P7-Pen]", "values": [
      {"measurement": "CL075-induced TLR8-mediated IFNβ mRNA expression", "setting": "TLR8", "result": "inhibited"},
      {"measurement": "expression of proinflammatory cytokines", "setting": "TLR8", "result": "no significant effect"},
      {"measurement": "LPS-mediated phosphorylation of TBK1 and IκBα", "setting": "TLR4 [2]", "result": "inhibited"},
      {"measurement": "phosphorylation of p38 MAPK", "setting": "TLR4 [2]; LPS", "result": "decreased"},
      {"measurement": "LPS-mediated phosphorylation of p38 MAPK", "setting": "TLR4 [3]; THP-1 cells", "result": "inhibited"},
      {"measurement": "IRAK1 ubiquitination/phosphorylation", "setting": "TLR4 [3]; primary monocytes, LPS", "result": "inhibited"},
      {"measurement": "Mal recruitment to the MyD88 complex and IRAK1", "setting": "[4]", "result": "totally abrogated; also recorded: disruption"}
    ]},
    {"substance": "Ac-ITVYASVTLTGRRRRRRRRRRR-NH2 [Peptide P7-Arg11]", "values": [
      {"measurement": "basal toxicity", "setting": "primary human monocytes", "result": "higher basal toxicity"}
    ]}
  ]
}
